We go through twelve molecules from ChEMBL document CHEMBL1201862, “PubChem BioAssay data set” (2004).

Each structure is given as a SMILES string. Where “and” joins values, the source holds several entries; their conditions need not be identical. Equal entries are not always repeated.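 Grown in 96-well plates, cells were treated for 48 hours with each compound at five concentrations. Insufficient inhibition: endpoint recorded as highest concentration tested. GI50 marks 50% less growth.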 Calls of active or inactive are those of the source. Cut-off read from the data, not from the text of the source: active = GI50 up to about 1.1 µM and inactive = higher.

Some test systems named below: K562; MDA-MB-231; SW-620; COLO 205; HL-60; RPMI-8226; NCI-H226; UACC-257; NCI/ADR-RES; HCT-15; NCI-H460; SF-295; HCT-116; SN12C; IGROV-1; RXF 393; CAKI-1.
Common to all, as to assay: NCI anticancer screen, dose series, 48 h

Take `[N-]=[N+]=Nc1cc(=O)[nH]nc1-c1ccccc1`: the GI50 in the assay with K562, with MDA-MB-231, in the assay with SW-620, in the assay on COLO 205, in the assay on HL-60 and in the assay with RPMI-8226 was > 100 µM (inactive) throughout. For the same molecule, the GI50 was > 100 µM (inactive) in the assay on NCI-H226; > 100 µM (inactive) in the assay on UACC-257; > 100 µM (inactive) in the assay on NCI/ADR-RES; above 100 µM with HCT-15; > 100 µM (inactive) in the assay with NCI-H460; > 100 µM (inactive) with SF-295. Also, the GI50 in the assay on HCT-116, in the assay with SN12C, with IGROV-1 and in the assay with RXF 393 was > 100 µM (inactive) in each case.

Turning to `COC(=O)[C@@H]1N2C(=S)N(c3ccccc3)C(=O)[C@H]2SC1(C)C`, the GI50 with MDA-MB-231, with CAKI-1, with SW-620, in the assay with COLO 205, in the assay with RPMI-8226 and in the assay with NCI-H226 was > 100 µM (inactive) each time. The GI50 was > 100 µM (inactive) in the assay on UACC-257; > 100 µM (inactive) with NCI/ADR-RES; above 100 µM in the assay on HCT-15; > 100 µM (inactive) with NCI-H460; > 100 µM (inactive) in the assay on SF-295; > 100 µM (inactive) with HCT-116. Also, the GI50 with SN12C, in the assay on IGROV-1 and in the assay on RXF 393 was > 100 µM (inactive) in each case.

On to `COC1OC(C(=O)CP(=O)(OC)OC)C(OCc2ccccc2)C(OCc2ccccc2)C1OCc1ccccc1` (centres undefined), for which the GI50 is 31 µM (inactive) and 17.9 µM (inactive) in the assay on K562; 15.9 µM (inactive) and 16.7 µM (inactive) in the assay on MDA-MB-231; 16.3 µM (inactive) and 19.6 µM (inactive) in the assay on CAKI-1; 20.7 µM (inactive) and 34.3 µM (inactive) in the assay on SW-620; 18.5 µM (inactive) and 18.2 µM (inactive) with COLO 205; 21.8 µM (inactive) and 18.7 µM (inactive) with HL-60. In addition, the GI50 was 19.2 µM (inactive) and 18.8 µM (inactive) with NCI-H226; 16.5 µM (inactive) and 15.7 µM (inactive) with UACC-257; 18.9 µM (inactive) and 16.4 µM (inactive) in the assay with NCI/ADR-RES; 15.5 µM and 17.7 µM in the assay on HCT-15; 15 µM (inactive) and 15.9 µM (inactive) in the assay with NCI-H460; 16.5 µM (inactive) and 14.5 µM (inactive) with SF-295. For the same molecule, the GI50 in the assay with HCT-116 is 16.6 µM (inactive) and 15.5 µM (inactive); in the assay with SN12C, 16.4 µM (inactive); in the assay on IGROV-1, 18.3 µM (inactive) and 18.9 µM (inactive); in the assay with RXF 393 it was 14.8 µM (inactive) and 12.1 µM (inactive).

Turning to `Cc1ccc(S(=O)(=O)N2C[C@](O)(c3ccccc3)[C@H]2C)cc1`, the GI50 in the assay on MDA-MB-231 was > 100 µM (inactive); in the assay on CAKI-1 it was > 100 µM (inactive); in the assay with SW-620, > 100 µM (inactive); in the assay with COLO 205, > 100 µM (inactive); with HL-60, 72.8 µM (inactive); in the assay on NCI-H226, > 100 µM (inactive). For the same molecule, the GI50 was > 100 µM (inactive) in the assay with UACC-257; > 100 µM (inactive) in the assay on NCI/ADR-RES; above 100 µM in the assay with HCT-15; > 100 µM (inactive) in the assay on NCI-H460; > 100 µM (inactive) in the assay on SF-295; > 100 µM (inactive) with HCT-116. Besides, the GI50 with SN12C, with IGROV-1 and with RXF 393 was > 100 µM (inactive) in each case.

With `Cc1cn(C2CC(COCc3ccccc3)N(CCO[Si](C)(C)C(C)(C)C)O2)c(=O)[nH]c1=O` (centres undefined), the GI50 was 4.71 µM (inactive) in the assay with K562; 18.7 µM (inactive) with MDA-MB-231; 18.5 µM (inactive) in the assay on CAKI-1; 15.5 µM (inactive) in the assay on SW-620; 15.1 µM (inactive) in the assay on COLO 205; 15.1 µM (inactive) with RPMI-8226. The GI50 was 14.3 µM (inactive) in the assay with NCI/ADR-RES; 18.5 µM (inactive) with NCI-H460; 16.4 µM (inactive) in the assay with SF-295; 16.8 µM (inactive) in the assay with HCT-116; 11 µM (inactive) with SN12C; 15.5 µM (inactive) with RXF 393.

With `COC(=O)[C@]1(C)CC[C@]2(C)CC[C@]3(C)C4[C@H]5Oc6c(cc7c(c6C)CCC6[C@@]7(C)CC[C@@]7(C)C8[C@](C)(CCC[C@@]8(C)C(=O)OC)CC[C@]67C)O[C@H]5c5c(cc6c(c5C)O[C@@]5(C)C7=CC=C8[C@@](C)(CC[C@@]9(C)[C@@H]%10C[C@](C)(C(=O)OC)CC[C@]%10(C)CC[C@]89C)C7=CC(=O)[C@@]5(O)O6)[C@]4(C)CC[C@@]3(C)C2C1` (some centres undefined), the GI50 is 3.46 µM (inactive) in the assay on K562; 3.11 µM (inactive) with MDA-MB-231; 6.22 µM (inactive) in the assay on CAKI-1; 2.53 µM (inactive) in the assay with SW-620; 6.35 µM (inactive) in the assay with COLO 205; 5.32 µM (inactive) with HL-60. Besides, the GI50 with NCI-H226 is > 12.5 µM (inactive); in the assay with UACC-257 it was 2.83 µM (inactive); in the assay on NCI/ADR-RES, > 12.5 µM (inactive); with HCT-15, 3.45 µM; with NCI-H460 it was 8.91 µM (inactive); with SF-295 it was > 12.5 µM (inactive). Also, the GI50 with HCT-116 is 2.34 µM (inactive); in the assay on SN12C it was 2.35 µM (inactive); in the assay with IGROV-1, 2.62 µM (inactive); in the assay on RXF 393, 1.91 µM (inactive).

For the molecule `CCOC(=O)c1nc2c(Cl)c3ncccc3cc2[nH]c1=O`, the GI50 in the assay on K562 was 26.1 µM (inactive); in the assay with MDA-MB-231, 18.1 µM (inactive); with CAKI-1 it was 66.5 µM (inactive); in the assay on SW-620, 43.3 µM (inactive); with COLO 205, > 100 µM (inactive); in the assay on HL-60 it was 14.2 µM (inactive). The GI50 is 6.71 µM (inactive) with NCI-H226; 46.7 µM (inactive) with UACC-257; 30.1 µM (inactive) in the assay on NCI/ADR-RES; 19 µM in the assay on HCT-15; 16.8 µM (inactive) with NCI-H460; 22.8 µM (inactive) in the assay on SF-295. Besides, the GI50 is 31.8 µM (inactive) in the assay with HCT-116, 53.5 µM (inactive) in the assay on IGROV-1 and 55 µM (inactive) in the assay on RXF 393.

On to `COC(=O)c1ccc(COC(=O)N2C=CCC2C(=O)O)cc1` (centres undefined), for which the GI50 with K562, with MDA-MB-231, in the assay with CAKI-1, with SW-620, in the assay on COLO 205 and in the assay with RPMI-8226 was > 100 µM (inactive) each time. Also, the GI50 is > 100 µM (inactive) in the assay on NCI-H226; > 100 µM (inactive) with UACC-257; > 100 µM (inactive) with NCI/ADR-RES; above 100 µM in the assay with HCT-15; > 100 µM (inactive) in the assay with NCI-H460; > 100 µM (inactive) in the assay on SF-295. Further, the GI50 with SN12C, in the assay with IGROV-1 and in the assay with RXF 393 was > 100 µM (inactive) throughout.

For `Oc1c(C2=NNC(c3cccs3)C2)ccc2ccccc12` (centres undefined), the GI50 with K562 was 17.9 µM (inactive); in the assay with MDA-MB-231, 26.1 µM (inactive); with CAKI-1 it was 40.6 µM (inactive); in the assay with SW-620 it was 24.5 µM (inactive); in the assay with COLO 205, 19.5 µM (inactive); in the assay on RPMI-8226 it was 17.7 µM (inactive). Further, the GI50 with NCI-H226 was 24.9 µM (inactive); in the assay with UACC-257, 30.1 µM (inactive); in the assay with NCI/ADR-RES it was 21.9 µM (inactive); with HCT-15, 18.2 µM; with NCI-H460, 14.8 µM (inactive); in the assay with SF-295, 18.2 µM (inactive). Further, the GI50 in the assay with HCT-116 was 16.4 µM (inactive); in the assay on SN12C, 19.4 µM (inactive); in the assay with IGROV-1 it was 14.5 µM (inactive); in the assay on RXF 393 it was 42.6 µM (inactive).

In the case of `CC(C)=CCC/C(C)=C\CC/C(C)=C/CO`, the GI50 in the assay on K562 is 19.7 µM (inactive); with MDA-MB-231, 42 µM (inactive); in the assay with CAKI-1, > 10 µM (inactive); in the assay on SW-620, 85.9 µM (inactive); with COLO 205, 40.1 µM (inactive); in the assay on HL-60, 17.1 µM (inactive). Also, the GI50 in the assay with RPMI-8226 is 14.7 µM (inactive); in the assay on NCI-H226, 36.4 µM (inactive); with UACC-257 it was 36.1 µM (inactive); in the assay on NCI/ADR-RES it was 13.7 µM (inactive); with HCT-15, 40.1 µM; in the assay on NCI-H460, > 10 µM (inactive). The GI50 is 23.1 µM (inactive) in the assay with SF-295, 19.8 µM (inactive) in the assay with HCT-116, 41.1 µM (inactive) with SN12C and 24.4 µM (inactive) in the assay with IGROV-1.

In the case of `O=C1/C(=C/c2cccnc2)SC(=S)N1Cc1ccco1`, the GI50 in the assay with K562 is 14.6 µM (inactive); with MDA-MB-231, 7.08 µM (inactive); in the assay on CAKI-1, 9.59 µM (inactive); with SW-620 it was 3.84 µM (inactive); in the assay on COLO 205, 6.15 µM (inactive); with RPMI-8226 it was 2.2 µM (inactive). Besides, the GI50 is 24.4 µM (inactive) in the assay with NCI-H226; 4.92 µM (inactive) in the assay with UACC-257; 20.1 µM (inactive) with NCI/ADR-RES; 3.72 µM in the assay on HCT-15; 6.37 µM (inactive) in the assay on NCI-H460; 35.7 µM (inactive) in the assay with SF-295. Moreover, the GI50 in the assay with HCT-116 was 3.06 µM (inactive); in the assay with SN12C, 4.47 µM (inactive); with IGROV-1, 6.68 µM (inactive); in the assay on RXF 393 it was 3.44 µM (inactive).

In the case of `CSC1=NN=C(SC)NN1`, the GI50 in the assay on K562 is 0.117 µM (active); in the assay on MDA-MB-231, 0.22 µM (active); with CAKI-1 it was 0.173 µM (active); in the assay with SW-620, 0.17 µM (active); in the assay on COLO 205 it was 0.198 µM (active); in the assay on HL-60, 0.0369 µM (active). Besides, the GI50 was 0.261 µM (active) in the assay with RPMI-8226; 0.181 µM (active) in the assay with NCI-H226; 0.131 µM (active) with UACC-257; 0.3 µM (active) in the assay with NCI/ADR-RES; 0.169 µM with HCT-15; 0.196 µM (active) in the assay on NCI-H460. Also, the GI50 is 0.198 µM (active) in the assay with SF-295, 0.167 µM (active) in the assay with HCT-116, 0.18 µM (active) with SN12C and 0.166 µM (active) in the assay on IGROV-1.
